Measured values as given in patent US5358946A, “Heterocycle-substituted amides, carbamates and ureas as agents for the treatment of atherosclerosis” (The Du Pont Merck Pharmaceutical Company, priority 1992, dated 1994).

Columns and labels:
[1] = target: T1, ACAT (Mus musculus, UniProt Q61263); test: Inhibition of cholesterol esterification in the murine macrophage-like cell line J774.A1; assay type: cell-based; details: J774.A1 cells, ac-LDL loaded, 14C-oleic acid pulse
T1 construct: endogenous in cells; host or cells: J774.A1 (murine macrophage-like)
T1 sequence (Q61263 1-540): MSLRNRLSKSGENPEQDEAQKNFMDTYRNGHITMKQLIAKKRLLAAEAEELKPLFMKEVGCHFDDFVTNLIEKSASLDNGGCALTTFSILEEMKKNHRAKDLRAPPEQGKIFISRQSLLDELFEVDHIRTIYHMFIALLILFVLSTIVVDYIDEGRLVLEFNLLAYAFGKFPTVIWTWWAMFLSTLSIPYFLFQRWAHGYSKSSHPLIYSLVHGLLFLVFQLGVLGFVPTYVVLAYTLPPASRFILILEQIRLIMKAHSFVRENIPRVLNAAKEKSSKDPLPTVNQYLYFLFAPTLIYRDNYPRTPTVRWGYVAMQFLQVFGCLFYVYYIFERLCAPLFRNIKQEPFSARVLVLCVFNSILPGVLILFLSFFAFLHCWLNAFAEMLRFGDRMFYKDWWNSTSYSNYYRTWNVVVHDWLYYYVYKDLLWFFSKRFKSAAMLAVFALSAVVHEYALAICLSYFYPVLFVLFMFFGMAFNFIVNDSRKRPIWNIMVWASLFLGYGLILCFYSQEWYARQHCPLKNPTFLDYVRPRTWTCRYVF
Experimental: The esterification of cholesterol was determined in the murine macrophage-like cell line J774.A1. Cells were seeded in 35 mm wells at a density of 300,000 cells per well in 2 mls of Dulbecco's Eagle Medium (DMEM) supplemented with 10% fetal bovine serum (FBS). Cells were incubated at 37° C. in an atmosphere of 5% CO2 and 93% humidity. After […] the media was changed to 0.68 mls 10% FBS-DMEM containing 34 μg of acetylated human low density lipoprotein (ac-LDL) to increase the intracellular concentration of cholesterol and promote esterification. At 41 hours, various inhibitors were added to the cells in DMSO (10 μl/ml maximum). At 43 hours, the cells were pulsed with 0.1 mM ^14 C-oleic acid (10,000 dpm/nmol) complexed with BSA (bovine serum albumin) to follow cholesterol ester formation. The experiment was terminated at 45 hours by washing the monolayers 3 times with 3 ml of Tris-buffered saline at 4° C. The lipids were extracted by incubating the monolayers with 1.5 ml of hexane: isopropanol (3:2, v/v) for 30 min. under gentle agitation. During this period, 10,000 dpm ^3 H-cholesterol oleate and 10 μg of unlabeled cholesteryl oleate, oleic acid, triolein and cholesterol were added as an […] standard and carriers. The organic solvent was removed and the cells were washed with an additional 1.0 ml of hexane: isopropanol which was combined with the original extract. The cells were allowed to dry overnight, digested with 2.0 ml of 0.2N sodium hydroxide for 1 hour and an aliquot of the solubilized protein used for protein determination using the Lowry method. […] Extracts were collected in scintillation vials to determine the amount of radioactivity. The conversion of oleic acid to cholesteryl ester in the control averaged 0.54 mmol/hour/mg protein and was increased upon the addition of ac-LDL to about 10.689±0.69 mmol/hour/mg protein.

[2] = target: T2, acyl-CoA: cholesterol acyltransferase (ACAT) (Rattus norvegicus, UniProt Q7TQM4); test: Inhibition of Acyl-CoA: Cholesterol Acyltransferase (ACAT) in hepatic microsomes (in vitro hepatic ACAT activity); assay type: biochemical, rat (male Sprague Dawley); details: 14C-oleoyl-CoA, 15 min preincubation at 37° C., pH 7.4, read-out: Inhibition of Cholesterol Esterification (IC50)
T2 construct: Microsomes were obtained by differential centrifugation; from tissue; host or cells: liver microsomes of male Sprague Dawley rats
T2 sequence (Q7TQM4 1-524): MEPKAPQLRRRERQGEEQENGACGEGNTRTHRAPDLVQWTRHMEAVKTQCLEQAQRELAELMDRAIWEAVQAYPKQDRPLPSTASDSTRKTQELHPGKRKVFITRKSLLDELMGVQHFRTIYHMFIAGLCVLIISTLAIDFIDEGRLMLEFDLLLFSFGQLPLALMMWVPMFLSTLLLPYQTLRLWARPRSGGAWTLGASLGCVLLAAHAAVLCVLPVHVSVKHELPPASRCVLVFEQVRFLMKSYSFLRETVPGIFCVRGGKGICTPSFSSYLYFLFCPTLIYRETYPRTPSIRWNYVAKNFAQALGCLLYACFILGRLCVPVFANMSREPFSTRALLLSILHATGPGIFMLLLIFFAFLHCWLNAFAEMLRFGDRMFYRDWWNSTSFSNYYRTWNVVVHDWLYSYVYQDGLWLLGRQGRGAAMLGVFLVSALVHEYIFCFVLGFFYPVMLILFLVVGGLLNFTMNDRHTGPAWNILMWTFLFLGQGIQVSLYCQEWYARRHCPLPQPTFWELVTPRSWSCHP
Experimental: The ability of the compounds to inhibit ACAT, the enzyme responsible for the intracellular synthesis of cholesteryl esters, was tested as follows. Male Sprague Dawley rats weighing 150-300 g, were fed rat chow ad libitum. The animals were fasted for twenty-four hours prior to being sacrificed by decapitation. The livers were perfused in situ with 50 ml of cold 0.25M sucrose, excised, and homogenized in three volumes of 0.1M phosphate buffer, pH 7.4, that contained 0.5 mM EDTA (ethylenediaminetetraacetic acid), 1.0 mM glutathione, 0.25M sucrose and […]. Microsomes were obtained by differential centrifugation; the supernatant from an initial spin at 15,000×g for 15 minutes was centrifuged at 105,000×g for 1 hour to pellet the microsomes. The microsomes were suspended in homogenization buffer, reisolated by centrifugation, and stored at -70° C. Microsomes were used within one month of preparation.
The control assay in a final volume of 200 μl consisted of 200 μg of microsomal protein, 75μ<^14 C-oleoyl-CoA (10,000 dpm/nmol) in 0.1M phosphate, pH 7.4, that contained 1 mM glutathione. Compounds were added in 5 μl of DMSO (dimethyl sulfoxide) and additional controls were run with DMSO only. All components, except the oleoyl-CoA, were preincubated for 15 min. at 37° C. prior to the initiation of the reaction by the addition of oleoyl-CoA. The assay was terminated after 10 min. by the addition of 4 ml of chloroform:methanol (2:1, v/v). 20,000 dpm of 3H-choledsteryl oleate and 10 μg of unlabeled cholesteryl oleate and oleic acid were added as an internal standard and carriers, respectively. After allowing 10 min. for lipid extraction, 0.8 ml of deionized water was added to separte the solution into two phases. The lower chloroform phase was collected, dried under nitrogen and resuspended in 2 ml of hexane:diethyl ether (97:3 v/v). The lipids were then loaded onto BAKERSBOND spe* silica gel columns. Extracts were collected in scintillation vials and counted for radioactivity. The specific activity of ACAT in the control incubation averaged 260 pmol/min/mg microsomal protein.

| SMILES | IC50 [1] | IC50 [2] |
| --- | --- | --- |
| CCCCCCCN(CCOC(=O)CSc1nc(-c2ccc(OC)cc2)c(-c2ccc(OC)cc2)[nH]1)C(=O)Nc1ccc(F)cc1F [Example 422, N-[2-[2-(4,5-bis(4-methoxyphenyl)-1H-imidazol-2-ylthio)-acetoxy]-ethyl]-N'-(2,4-diflurophenyl)-N -heptyl-urea] | 2390 nM | 2600 nM |
| CCCCCCCN(CCNC(=O)CSc1nc(-c2ccc(OC)cc2)c(-c2ccc(OC)cc2)[nH]1)C(=O)Nc1ccc(F)cc1F [Example 432] | 800 nM | 3750 nM |
